Measurements: US9115092B2, “Substituted quinazoline and pyrido-pyrimidine derivatives” (Asana Biosciences, LLC, priority 2010, dated 2015)

Key:
[1] = system: pS6RP, T47D cells; experiment: In-cell Western assay, pS6RP in T47D cells; format: cell-based; conditions: Homo sapiens, T47D cell line, read-out: inhibition of pS6RP, IC50
[2] = system: pAkt(5473), BT474 cells; experiment: In-cell Western assay, pAkt(5473) in BT474 cells; format: cell-based; conditions: Homo sapiens, BT-474, BT474 cell line, read-out: inhibition of pAkt(5473), IC50
[3] = system: T47D cells; experiment: XTT assay for cell viability, T47D cells; format: cell-based; conditions: Homo sapiens, read-out: inhibition of cell proliferation, IC50
Description: Using a commercial kit from Sigma Aldrich (Catalog #X34251) and following its protocol, PC3 cells in the log phase of growth were employed and seeded at an optimal density of 1000 cell/well on to 96 well plates and incubated for 24 h followed by the addition of compounds of formula (I) in serial dilutions. Compound dilutions were made in DMSO. The cells were incubated with the compounds of formula (I) for 96 h and XTT tetrazolium dye (Sigma, USA) was subsequently added and incubated at 37° C. After the color formation, absorbance was measured at 465 nm in a Spectramax® Gemini spectrophotometer. EC50 values were calculated using a sigmoidal dose response curve fit in GraphPad Prism® v5 software. The tested compounds of formula (I) which caused inhibition of PC3 cell proliferation as determined by this assay protocol are shown in Table 2.
XTT assays for cell viability are also determined in BT474 cells and T47D cells, in a similar manner to the protocol described above.

[4] = target: PI3 kinase isoform γ (Homo sapiens, UniProt P48736); experiment: PI3 Kinase TR-FRET assay, isoform γ; format: biochemical; conditions: read-out: inhibition of PI3 kinase isoform γ, IC50
PI3 kinase isoform γ, sequence (P48736 whole entry, the tested form may be a part, canonical isoform): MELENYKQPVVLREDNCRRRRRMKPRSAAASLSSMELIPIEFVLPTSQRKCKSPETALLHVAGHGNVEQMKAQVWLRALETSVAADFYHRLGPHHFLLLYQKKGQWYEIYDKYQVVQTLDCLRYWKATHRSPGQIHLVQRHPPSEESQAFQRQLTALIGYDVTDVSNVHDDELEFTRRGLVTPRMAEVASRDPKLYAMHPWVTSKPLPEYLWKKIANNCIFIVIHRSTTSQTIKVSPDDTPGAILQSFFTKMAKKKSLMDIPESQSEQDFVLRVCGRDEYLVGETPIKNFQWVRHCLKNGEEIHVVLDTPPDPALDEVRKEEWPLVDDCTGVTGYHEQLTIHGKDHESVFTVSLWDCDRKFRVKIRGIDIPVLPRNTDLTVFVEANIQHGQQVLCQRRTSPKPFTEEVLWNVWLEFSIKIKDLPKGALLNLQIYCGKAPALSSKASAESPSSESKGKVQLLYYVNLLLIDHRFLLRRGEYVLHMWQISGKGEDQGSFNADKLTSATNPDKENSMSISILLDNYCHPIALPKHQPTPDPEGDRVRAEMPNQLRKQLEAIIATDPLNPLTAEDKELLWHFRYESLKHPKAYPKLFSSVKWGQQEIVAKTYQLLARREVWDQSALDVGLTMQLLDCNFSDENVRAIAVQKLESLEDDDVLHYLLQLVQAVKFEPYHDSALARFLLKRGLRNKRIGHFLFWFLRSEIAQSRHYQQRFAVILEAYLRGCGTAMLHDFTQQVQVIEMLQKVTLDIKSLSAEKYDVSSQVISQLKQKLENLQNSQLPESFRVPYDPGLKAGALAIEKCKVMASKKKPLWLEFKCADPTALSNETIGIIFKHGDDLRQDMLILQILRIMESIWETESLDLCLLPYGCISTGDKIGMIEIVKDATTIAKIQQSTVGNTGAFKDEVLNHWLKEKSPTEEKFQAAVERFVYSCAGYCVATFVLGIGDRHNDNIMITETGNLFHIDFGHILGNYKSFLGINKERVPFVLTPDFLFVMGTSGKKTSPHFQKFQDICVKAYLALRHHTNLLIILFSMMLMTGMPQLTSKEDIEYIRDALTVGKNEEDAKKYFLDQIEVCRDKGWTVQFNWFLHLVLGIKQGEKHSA
Description: The ability of compounds of the invention to inhibit PI3K activity was determined in a homogeneous TR-FRET assay using a PI3K assay kit (Millipore, USA; cat #33-016) according to manufacturer's instructions. PI3-Kinases (isoforms α, β, γ and δ) catalyze the phosphorylation of phosphatidylinositol, PIP2 to PIP3 in the presence of ATP and Mg^2+. The PIP3 product is detected by displacement of biotin-PIP3 from an energy transfer complex consisting of Europium labeled anti-GST monoclonal antibody, a GST-tagged PH domain, biotinylated PIP3 and Streptavidin-APC. Excitation of Europium in the complex results in an energy transfer to the APC and a fluorescence emission at 665 nm. The PIP3 product displaces biotin-PIP3 from the complex resulting in a loss of energy transfer and thus a decrease in signal.
To test for the ability of compounds to inhibit the activity of PI3Kα (wild-type), exemplary compounds of formula (I) were dissolved in DMSO and directly distributed into 384-well plates at a volume of 0.5 μL. […] Fluorescence was measured at 615 and 665 nm upon excitation at 340 nm in a Victor™ V5 fluorometer (Perkin Elmer, USA). The fluorescence emission ratio at 665 to 615 nm, proportional to the kinase activity, was plotted against the compound concentration to generate dose-response curves and IC50 values were determined using GraphPad Prism® 5 software. […]

SMILES	IC50 [1]	IC50 [2]	IC50 [3]	IC50 [4]
CN(C)C(=O)c1ccc(NC(=O)Nc2ccc(-c3nc(N4CCOCC4)c4ccc(-c5cncnc5)cc4n3)cc2)cc1 [Example 1, N,N-Dimethyl-4-(3-{4-[4-morpholin-4-yl-7-pyrimidin-5-yl-quinazolin-2-yl)-phenyl]-ureido}-benzamide]	< 50 nM	< 300 nM	< 100 nM	
Cc1ccc(-c2ccc3c(N4CCOCC4)nc(-c4ccc(NC(=O)Nc5ccc(C(=O)N(C)C)cc5)cc4)nc3c2)o1 [Example 2, N,N-Dimethyl-4-(3-{4-[7-(5-methyl-furan-2-yl)-4-morpholin-4-yl-quinazolin-2-yl]-phenyl}-ureido)-benzamide]				< 1000 nM
